Measured values taken from patent US3966793A (priority 1964, dated 1976).
Like-named read-outs stand apart in the source and are kept apart here.

Key:
mouse [1] = assay: Potentiation of narcosis (M); type: in vivo; conditions: PO, read-out: Narcotic potentiation, 50% effective dose
Excerpt: 12. Potentiation of narcosis
Most psycholeptics are hypnotics in large doses, but many of them can, in small doses, without themselves producing any hypnosis, either prolong the time of sleep obtained with a true hypnotic (for example a barbiturate) or appreciably lower the dose of barbiturate required to obtain sleep.

mice [2] = assay: Anti-convulsant activity (anti-pentetrazole) (mice); type: in vivo; conditions: mouse, pentetrazole 125 mg./kg. IP, read-out: Anti-pentetrazole, 50% effective dose
Protocol: 3. Anti-convulsant activity (anti-pentetrazole) (mice)
Pentetrazole, injected intraperitoneally in a dose of 125 mg./kg. produces fatal convulsions in 100% of the animals.
Certain compounds exert a protective action preventing convulsions and permitting survival.

cat = assay: Morphine crisis (C); type: in vivo; conditions: Felis catus, SC, read-out: Morphine crisis, 50% effective dose
Excerpt: In the cat, morphine produces a specific state of excitation with hallucinations which can be attenuated or suppressed by certain psycholeptic drugs.

rat [3] = assay: Benzedrine provoked motor activity (R); type: in vivo; conditions: PO, read-out: Benzedrine provoked motor activity, 50% effective dose
Excerpt: (§1) 6. Spontaneous motor activity in the rat and mouse and provoked motor activity
(§2) The effect of drugs on voluntary movements of animals can be studied statistically by methods, the details of which will not be discussed here. The mouse, which is an extremely lively animal and moves about a great deal, is particularly suitable for this type of experiment.
(§3) Moreover, this spontaneous mobility can be exacerbated by preventive administration to the animals of certain substances such as benzedrine, mescaline and ritaline.
(§4) The experimental results obtained by these methods give valuable information for clinical purposes with regard to the treatment of ambulatory psychomotor crises.

mouse [4] = assay: Antistrychnine activity; type: in vivo; conditions: po, read-out: Anti-strychnine, 50% effective dose
Excerpt: 7. Antistrychnine activity

mice [5] = assay: Exploration test (mice); type: in vivo; conditions: for ED50: Mus musculus, read-out: Exploration, 50% effective dose
Protocol: 5. Exploration test (mice)
This extremely simple test consists in placing a mouse at the center of a floor pierced with holes and in noting how many holes the mouse explores in 5 minutes. This test is carried out in a room in which complete silence is observed and which contains no person except the experimenter who is seated and still. It appeals to the curiosity of the animals. The doses of the compounds employed are, however, very small and considerably less than those required to impair movement. This simple test makes it possible to observe whether the compounds assayed produce a more or less pronounced lack of interest in the environment and it gives information which is interesting from the clinical point of view with regard to the treatment of anxiety and restlessness.

central nervous system = assay: Pharmacodynamic / central nervous system tests taken together; type: in vivo
Excerpt: A certain number of the compounds described in the present application have been studied with regard to their action on the central nervous system, as psycholeptics, myorrelaxants and tranquilizers. In addition, the acute toxicity has been determined for a number of these compounds.
It has thereby been possible to make quantitative comparisons of the activity of the different compounds for the different tests employed.

male rat = assay: Combativeness (rat); type: in vivo; conditions: for ED50: rat, read-out: Combativeness, 50% effective dose
Excerpt: It is possible to make a male rat aggressive towards another male rat enclosed in the same cage by passing an electric current of more or less high voltage through the floor of the cage.
This test, like the preceding one, can obviously give information of clinical value for the treatment of aggression diseases.

[6] = Reaction (pH) of aqueous solution; type: physicochemical
Acute toxicity (M) LD 50 = conditions: in vivo, mouse
mouse [7] = assay: Mescaline provoked motor activity (M); type: in vivo; conditions: PO, read-out: Mescaline provoked motor activity, 50% effective dose
Excerpt: as §1, §2, §3, §4

mouse [8] = assay: Ritaline provoked motor activity (M); type: in vivo; conditions: PO, read-out: Ritaline provoked motor activity, 50% effective dose
Excerpt: as §1, §2, §3, §4

mouse [9] = assay: Morphine excitation (M); type: in vivo; conditions: PO, read-out: Morphine excitation, 50% effective dose
Excerpt: In the mouse, the action of morphine is different but also manifested by marked central excitation.

mouse [10] = assay: Spontaneous motor activity in the mouse; type: in vivo; conditions: for ED50: Mus musculus, read-out: Spontaneous motor activity, 50% effective dose
Excerpt: as §1, §2

mouse [11] = assay: Benzedrine provoked motor activity (M); type: in vivo; conditions: PO, read-out: Benzedrine provoked motor activity, 50% effective dose
Excerpt: as §1, §2, §3, §4

mice [12] = assay: Balance test: rotating rod (mice) (Equilibration); type: in vivo; conditions: for ED50: Mus musculus, read-out: Equilibration, 50% effective dose
Excerpt: 2. Balance test: rotating rod (mice)
This test consists in observing whether the treated animals are capable of maintaining their balance on a horizontal rod kept in rotation.
Numerous neuroleptic compounds or tranquilizers disturb the equilibration reflex.

mice [13] = assay: Traction test (mice), myorelaxant activity; type: in vivo; conditions: for ED50: Mus musculus, read-out: Traction, 50% effective dose
Excerpt: This consists in observing when the treated animals are capable of retrieving a rod grasped by the front paws only. Inability to carry this out was interpreted as a sign of myorelaxant activity.

mice [14] = assay: Anti-convulsant activity (electric shock) (mice); type: in vivo; conditions: for ED50: Mus musculus, read-out: Electric shock, 50% effective dose
Excerpt: 4. Anti-convulsant activity (electric shock) (mice)
The test consists in determining the intensity of the electric current required to produce a fatal shock in a batch of test animals.
Certain preventively administered compounds effectively protect a certain percentage of animals subjected to an electric current of an intensity which is fatal to untreated animals.

cats = assay: Aggressiveness (cat/mouse); type: in vivo; conditions: Felis catus, SC, read-out: Aggressiveness, 50% effective dose
Excerpt: 9. Aggressiveness (cat/mouse)
In general, 75 to 80% of cats are aggressive when confronted with white mice. Psycholeptics and tranquilizers may make the cat indifferent and sometimes even amiable to the mouse. Similarly, in the case of cats that are furious and aggressive in relation to humans, diminution or suppression of the instinctive fear and establishment of a climate of confidence are observed.

rat [15] = assay: Spontaneous motor activity in the rat; type: in vivo; conditions: for ED50: Rattus norvegicus, read-out: Spontaneous motor activity, 50% effective dose
Excerpt: as §1, §2

[16] = Stability in aqueous solution; type: physicochemical; conditions: compound A obtained
rats = assay: Double box conditioning test (R); type: in vivo; conditions: rat
Excerpt: The test used consists in educating rats to avoid an electric current passed through the floor of a cage of two compartments when they change compartments. The animal is first warned by a lamp which lights up in the compartment through which the current is passing while the other is in relative darkness.
This test, which requires more or less daily training at the rate of 50 times for each rat, makes it possible to follow the animals and note their progress. The performances realized at the end of a certain time (3 weeks to 1 month of training) are fairly constant, the percentage of errors made by adequately gifted subjects being less than 10 and very often even zero.
One would imagine that disturbances produced in these performances which call upon the memory of animals would be of great importance for the choice of a new medicament. A deconditioning drug of sufficient intensity could have the result of partly depriving the patient of the idea of danger and would consequently require special surveillance of the sick persons.

Structure (SMILES)	ED50 (mouse [1])	ED50 (mice [2]; PO)	ED50 (cat)	ED50 (rat [3])	ED50 (mouse [4])	ED50 (mice [5]; po)	ED50 (male rat; PO)	Reaction / pH of aqueous solution [6]	Solubility in water (Solubility)	LD50 (Acute toxicity (M) LD 50; IP)	LD50 (Acute toxicity (M) LD 50; PO)	ED50 (mouse [7])	ED50 (mouse [8])	ED50 (mouse [9])	ED50 (mouse [10]; po)	ED50 (mouse [11])	ED50 (mice [12]; po)	ED50 (mice [13]; po)	ED50 (mice [14]; po)	ED50 (rat [15]; po)	also measured
O=C(O)C1N=C(c2ccccc2)c2cc(Cl)ccc2NC1=O.[K+].[K+].[OH-].[OH-] (stereo not drawn) [4306 CB, 7-Chloro-2,3-dihydro-2-oxo-5-phenyl-1H-benzo[f]-1,4-diazepine-3-carboxylic acid, monopotassium salt, monopotassium hydroxide]	2 mg/kg	1.7 mg/kg	25 mg/kg	> 100 mg/kg	25 mg/kg	4 mg/kg	< 25 mg/kg	strongly alkaline in reaction	completely soluble in water	250 mg/kg	700 mg/kg	20 mg/kg	20 mg/kg	50 mg/kg	5 mg/kg	> 20 mg/kg	14 mg/kg	1.1 mg/kg	4.6 mg/kg	< 25 mg/kg	Exploration, 50% effective dose (mice [5]; mouse, PO, listed as Ca 2053): 6.25 mg/kg; Activity compared with diazepame (central nervous system; most of the tests): highly active and in most of the tests, it is at least equal and frequently superior to diazepame; Pharmacodynamic comparison of products obtained by the two methods (central nervous system; saponification of benzodiazepine ester or of imine diester): pharmacodynamic studies confirm the identity of the products obtained by the two methods; Spontaneous motor activity, 50% effective dose (mouse [10]; PO, listed as Ca 2053): 10 mg/kg; Equilibration, 50% effective dose (mice [12]; mouse, PO, listed as Ca 2053): 9.6 mg/kg; Traction, 50% effective dose (mice [13]; mouse, PO, listed as Ca 2053): 1.25 mg/kg; Electric shock, 50% effective dose (mice [14]; mouse, PO, listed as Ca 2053): 3 mg/kg; ED50 (cats): 25 mg/kg; Spontaneous motor activity, 50% effective dose (rat [15]; PO, listed as Ca 2053): 25 mg/kg
O=C([O-])C1N=C(c2ccccc2)c2cc(Cl)ccc2NC1=O.[K+] (stereo not drawn) [4311 CB, 7-Chloro-2,3-dihydro-2-oxo-5-phenyl-1H-benzo[f]-1,4-diazepine-3-carboxylic acid, potassium salt]	2 mg/kg	1.65 mg/kg		50 mg/kg	20 mg/kg		25 mg/kg	substantially neutral reaction	completely soluble in water	310 mg/kg	870 mg/kg	20 mg/kg		20 mg/kg	10 mg/kg		5 mg/kg	1.35 mg/kg		50 mg/kg	ED50 (mice [2]; IP): 2.9 mg/kg; Decarboxylation on heating an aqueous solution [16]: decarboxylated within a few minutes; ED50 (mice [5]; ip): 5 mg/kg; Activity compared with 4306 (central nervous system; in vivo): highly active but slightly less so than 4306; Activity, parenteral compared with oral administration (central nervous system; parenteral vs oral): slightly less when administered parenterally than when administered orally; ED50 (male rat; IP): 25 mg/kg; LD50 (Acute toxicity (M) LD 50; IV): 220 mg/kg; LD50 (Acute toxicity (M) LD 50; SC): 450 mg/kg; ED50 (mouse [10]; ip): 25 mg/kg; ED50 (mice [12]; ip): 4.5 mg/kg; ED50 (mice [13]; ip): 1.75 mg/kg; ED50 (mice [14]; ip): 2.6 mg/kg; ED50 (rats; PO, read-out: Double box conditioning, 50% effective dose): 10 mg/kg; ED50 (rat [15]; ip): 25 mg/kg
O=C(O)C1N=C(c2ccccc2)c2cc([N+](=O)[O-])ccc2NC1=O.[K+].[K+].[OH-].[OH-] (stereo not drawn) [4335 CB, 7-Nitro-2,3-dihydro-2-oxo-5-phenyl-1H-benzo[f]-1,4-diazepine-3-carboxylic acid, monopotassium salt, monopotassium hydroxide]		0.44 mg/kg	25 mg/kg	100 mg/kg	> 20 mg/kg	1.8 mg/kg	10 mg/kg	strongly alkaline in reaction	dissolves completely in water		560 mg/kg	20 mg/kg	> 20 mg/kg	50 mg/kg	5 mg/kg		4.3 mg/kg	1.25 mg/kg	3.2 mg/kg	25 mg/kg	Activity in different tests, especially as myorelaxants and anticonvulsants (central nervous system; different tests of Table VI): extremely active in different tests; Effect on the faculties of displacement (central nervous system; in vivo): less effect on the faculties of displacement; Effect in diminishing aggressiveness (male rat; test for combativeness): marked effect in diminishing aggressiveness; ED50 (cats): 25 mg/kg
O=C1CN=C(c2ccccc2)c2cc(Cl)ccc2N1 [Nor-diazepame, 7-Chloro-5-phenyl-2-oxo-2,3-dihydro-1H-benzo[f]-1,4-diazepine, reference compound]		2.9 mg/kg		100 mg/kg		7.8 mg/kg	100 mg/kg								50 mg/kg	> 20 mg/kg	8.6 mg/kg	3.5 mg/kg	9 mg/kg	50 mg/kg	Double box conditioning, effect in words (rats): Without effect
